These molecules were tested on Mythimna separata (assay: Efficacy test against Mythimna separata (treated artificial feed)). Conditions: in vivo.
Procedure: Five parts of the compound of the present invention, 93.6 parts of dimethylformamide and 1.4 parts of a polyoxyethylene alkyl aryl ether were mixed together and dissolved to obtain an emulsion (1) containing 5% of the active constituent.
The mortality rate was calculated using the following equation. Mortality rate (%)=(number of dead pests/number of test pests)×100
First, 0.8 g of an artificial feed (Insecta LFS, manufactured by Nosan Corporation) and 1 μl of the emulsion (I) were mixed thoroughly, and 0.2 g of the resulting mixture was placed in each of the treatment areas of a plastic test container (volume: 1.4 ml) to complete preparation of a test feed.
Two second-instar larvae of Mythimna separata were inoculated into each treatment area, and the test container was sealed with a plastic lid. The sealed container was placed in a temperature-controlled room at 25° C., and the mortality rate and the amount of feed consumed were determined on the fifth day. The test was repeated. Further, a test performed under the same conditions, but with the exception of excluding the compound of the present invention from the emulsion (1), was used as a control.

| Compound | mortality rate against Mythimna separata, or amount of feed consumed relative to control |
| --- | --- |
| N#Cc1ccc(NC(=O)c2ccc(C(F)(F)F)cc2NS(=O)(=O)C(F)(F)F)c(F)c1 [a-53] | 100%, or the amount of feed consumed was 10% or less |
| O=C(Nc1ccc(C(F)(F)F)cc1F)c1ccc(C(F)(F)F)cc1NS(=O)(=O)C(F)(F)F [a-54] | 100%, or the amount of feed consumed was 10% or less |
| O=C(Nc1ccc(Cl)cc1C(F)(F)F)c1ccc(C(F)(F)F)cc1NS(=O)(=O)C(F)(F)F [a-55] | 100%, or the amount of feed consumed was 10% or less |
| O=C(Nc1ccnc(OCC(F)(F)F)c1)c1ccc(C(F)(F)F)cc1NS(=O)(=O)C(F)(F)F [a-56] | 100%, or the amount of feed consumed was 10% or less |
| COC(=O)c1cc(F)ccc1NC(=O)c1ccc(C(F)(F)F)cc1NS(=O)(=O)C(F)(F)F [a-57] | 100%, or the amount of feed consumed was 10% or less |
| COC(=O)c1cc(C(F)(F)F)ccc1NC(=O)c1ccc(C(F)(F)F)cc1NS(=O)(=O)C(F)(F)F [a-58] | 100%, or the amount of feed consumed was 10% or less |
| CCOc1cc(C(F)(F)F)ccc1NC(=O)c1ccc(C(F)(F)F)cc1NS(=O)(=O)C(F)(F)F [a-59] | 100%, or the amount of feed consumed was 10% or less |
| COC(=O)c1cc(Cl)ccc1NC(=O)c1ccc(C(F)(F)F)cc1NS(=O)(=O)C(F)(F)F [a-60] | 100%, or the amount of feed consumed was 10% or less |
| CCOC(=O)c1cc(Br)ccc1NC(=O)c1ccc(C(F)(F)F)cc1NS(=O)(=O)C(F)(F)F [a-61] | 100%, or the amount of feed consumed was 10% or less |
| COC(=O)c1cc(I)ccc1NC(=O)c1ccc(C(F)(F)F)cc1NS(=O)(=O)C(F)(F)F [a-62] | 100%, or the amount of feed consumed was 10% or less |
| COC(=O)c1ccc(C(F)(F)F)cc1NC(=O)c1ccc(C(F)(F)F)cc1NS(=O)(=O)C(F)(F)F [a-63] | 100%, or the amount of feed consumed was 10% or less |
| O=C(Nc1ccc(C(F)(F)F)c(F)c1)c1ccc(C(F)(F)F)cc1NS(=O)(=O)C(F)(F)F [a-64] | 100%, or the amount of feed consumed was 10% or less |
| CCC(=O)c1cc(C(F)(F)F)ccc1NC(=O)c1ccc(C(F)(F)F)cc1NS(=O)(=O)C(F)(F)F [a-66] | 100%, or the amount of feed consumed was 10% or less |
| COC(=O)c1cc(C#N)ccc1NC(=O)c1ccc(C(F)(F)F)cc1NS(=O)(=O)C(F)(F)F [a-67] | 100%, or the amount of feed consumed was 10% or less |
| O=C(Nc1ccc(Br)cc1Cl)c1ccc(C(F)(F)F)cc1NS(=O)(=O)C(F)(F)F [a-68] | 100%, or the amount of feed consumed was 10% or less |
| O=C(Nc1ccc(Br)c(Cl)c1)c1ccc(C(F)(F)F)cc1NS(=O)(=O)C(F)(F)F [a-69] | 100%, or the amount of feed consumed was 10% or less |
| O=C(Nc1ccc(Cl)c(C(F)(F)F)c1)c1ccc(C(F)(F)F)cc1NS(=O)(=O)C(F)(F)F [a-70] | 100%, or the amount of feed consumed was 10% or less |
| COC(=O)c1cc(Cl)cc(Cl)c1NC(=O)c1ccc(C(F)(F)F)cc1NS(=O)(=O)C(F)(F)F [a-71] | 100%, or the amount of feed consumed was 10% or less |
| COC(=O)c1cc(Br)ccc1NC(=O)c1ccc(Br)cc1NS(=O)(=O)C(F)(F)F [a-73] | 100%, or the amount of feed consumed was 10% or less |
| COC(=O)c1cc([N+](=O)[O-])ccc1NC(=O)c1ccc(C(F)(F)F)cc1NS(=O)(=O)C(F)(F)F [a-75] | 100%, or the amount of feed consumed was 10% or less |
| O=C(Nc1ccc(Br)cc1-n1cccn1)c1ccc(C(F)(F)F)cc1NS(=O)(=O)C(F)(F)F [a-76] | 100%, or the amount of feed consumed was 10% or less |
| COC(=O)c1cc(F)c(F)cc1NC(=O)c1ccc(C(F)(F)F)cc1NS(=O)(=O)C(F)(F)F [a-78] | 100%, or the amount of feed consumed was 10% or less |
| COC(=O)c1cc(I)c(Cl)cc1NC(=O)c1ccc(C(F)(F)F)cc1NS(=O)(=O)C(F)(F)F [a-79] | 100%, or the amount of feed consumed was 10% or less |

| Compound | mortality rate against Mythimna separata, or amount of feed consumed relative to control |
| --- | --- |
| O=C(Nc1cc(C(F)(F)F)ccc1-n1cccn1)c1ccc(C(F)(F)F)cc1NS(=O)(=O)C(F)(F)F [a-81] | 100%, or the amount of feed consumed was 10% or less |
| COC(=O)c1cc(C(F)(F)F)c(Cl)cc1NC(=O)c1ccc(C(F)(F)F)cc1NS(=O)(=O)C(F)(F)F [a-82] | 100%, or the amount of feed consumed was 10% or less |
| COC(=O)c1cc(Br)c(Cl)cc1NC(=O)c1ccc(C(F)(F)F)cc1NS(=O)(=O)C(F)(F)F [a-83] | 100%, or the amount of feed consumed was 10% or less |
| COC(=O)c1cc(Br)ccc1NC(=O)c1cc(C(F)(F)F)c(Cl)cc1NS(=O)(=O)C(F)(F)F [a-84] | 100%, or the amount of feed consumed was 10% or less |
| COC(=O)c1cc(Br)c(F)cc1NC(=O)c1ccc(C(F)(F)F)cc1NS(=O)(=O)C(F)(F)F [a-85] | 100%, or the amount of feed consumed was 10% or less |
| COC(=O)c1cc(C(F)(F)F)c(F)cc1NC(=O)c1ccc(C(F)(F)F)cc1NS(=O)(=O)C(F)(F)F [a-86] | 100%, or the amount of feed consumed was 10% or less |
| COC(=O)c1cc(F)c(F)cc1NC(=O)c1cc(F)c(F)cc1NS(=O)(=O)C(F)(F)F [a-87] | 100%, or the amount of feed consumed was 10% or less |
| COC(=O)c1cc(F)c(F)cc1NC(=O)c1cc(Br)c(Cl)cc1NS(=O)(=O)C(F)(F)F [a-88] | 100%, or the amount of feed consumed was 10% or less |
| COC(=O)c1cc(Cl)c(F)cc1NC(=O)c1ccc(C(F)(F)F)cc1NS(=O)(=O)C(F)(F)F [a-90] | 100%, or the amount of feed consumed was 10% or less |
| COC(=O)c1ccc(Cl)cc1NC(=O)c1ccc(C(F)(F)F)cc1NS(=O)(=O)C(F)(F)F [a-92] | 100%, or the amount of feed consumed was 10% or less |
| COC(=O)c1cnc(Cl)cc1NC(=O)c1ccc(C(F)(F)F)cc1NS(=O)(=O)C(F)(F)F [a-96] | 100%, or the amount of feed consumed was 10% or less |
| COC(=O)c1cc(F)c(F)cc1NC(=O)c1cc(Cl)c(Cl)cc1NS(=O)(=O)C(F)(F)F [a-97] | 100%, or the amount of feed consumed was 10% or less |
| COC(=O)c1cc(F)c(F)cc1NC(=O)c1cc(F)c(C(F)(F)F)cc1NS(=O)(=O)C(F)(F)F [a-98] | 100%, or the amount of feed consumed was 10% or less |
| COC(=O)c1cc(F)c(F)cc1NC(=O)c1cc(C(F)(F)F)c(F)cc1NS(=O)(=O)C(F)(F)F [a-99] | 100%, or the amount of feed consumed was 10% or less |
| COC(=O)c1cc(F)c(F)cc1NC(=O)c1ccc(-c2ccc(C(F)(F)F)nc2)cc1NS(=O)(=O)C(F)(F)F [a-100] | 100%, or the amount of feed consumed was 10% or less |
| O=C(Nc1ccc(C(F)(F)F)cc1[N+](=O)[O-])c1ccc(C(F)(F)F)cc1NS(=O)(=O)C(F)(F)F [a-103] | 100%, or the amount of feed consumed was 10% or less |
| COC(=O)c1cc(OC(F)(F)F)ccc1NC(=O)c1ccc(C(F)(F)F)cc1NS(=O)(=O)C(F)(F)F [a-109] | 100%, or the amount of feed consumed was 10% or less |
| COC(=O)c1cc(OC(F)(F)F)ccc1NC(=O)c1cc(F)c(F)cc1NS(=O)(=O)C(F)(F)F [a-110] | 100%, or the amount of feed consumed was 10% or less |
| COC(=O)c1cc(C(F)(F)F)ccc1NC(=O)c1cc(F)c(F)cc1NS(=O)(=O)C(F)(F)F [a-111] | 100%, or the amount of feed consumed was 10% or less |
| COC(=O)c1cc(C(F)(F)F)ccc1NC(=O)c1cc(Br)c(Cl)cc1NS(=O)(=O)C(F)(F)F [a-112] | 100%, or the amount of feed consumed was 10% or less |
| COC(=O)c1cc([N+](=O)[O-])ccc1NC(=O)c1cc(F)c(F)cc1NS(=O)(=O)C(F)(F)F [a-113] | 100%, or the amount of feed consumed was 10% or less |
| CON=Cc1cc(Cl)ccc1NC(=O)c1ccc(C(F)(F)F)cc1NS(=O)(=O)C(F)(F)F [a-115] | 100%, or the amount of feed consumed was 10% or less |
| O=C(Nc1cc(F)c(F)cc1F)c1ccc(C(F)(F)F)cc1NS(=O)(=O)C(F)(F)F [a-116] | 100%, or the amount of feed consumed was 10% or less |

Reference: patent publication US10793520B2, “Sulfonylaminobenzamide compound and pest control agent” (Nippon Soda Co., Ltd., priority 2016, dated 2020)
